According to US8816095B2, “Na channels, disease, and related assays and compositions” (Georgetown University, priority 2008, dated 2014):

Tests used:
hERG potassium channels = molecular target: T1, hERG potassium channels (Homo sapiens, UniProt Q12809); assay: hERG binding assay ([35S]MK-499 displacement); details: [35S]MK-499, HEK-293 hERG membranes
T1 construct: expressed in transfected cells; host or cells: HEK-293 (membranes)
Source text: All four compounds were also counter-screened for human ether-a-go-go-related gene (hERG) activity against the radio-ligand MK-0499. Blockade of hERG K^+ channels is widely regarded as the predominant cause of drug-induced QT prolongation. (Aronov, A J Med Chem. 2006 Nov. 16; 49(23):6917-21).
MK-499, a potent hERG blocker, was used in a ligand binding assay to evaluate the binding of test compounds to hERG potassium channels as previously described (Wang, J et al. Am J Physiol Heart Circ Physiol, 2003, 284: H256-H267).^2 Test compounds were incubated with 0.05 nM of radiolabeled MK-499 ([35S]MK-499; specific Activity=1,279,010 μCi/μmol) in an assay buffer solution (70 mM NaCl, 60 mM KCl, 10 mM HEPES/NaOH (pH 7.4), 2 mM MgCl2, 1 mM CaCl2) also containing membranes isolated from HEK-293 cells stably expressing hERG channels in 96 well polypropylene deep-well assay plates at room temperature (25° C.) for >90 min. Assay plates were rinsed three time with buffer (130 mM NaCl, 10 mM HEPES/NaOH (pH 7.4), 2 mM MgCl2, 1 mM CaCl2) and the solution transferred to a Packard FilterMate Universal Harvester apparatus and filtered using PerkinElmer UniFilter-96 GF/C 96-well white microplates pre-soaked with 0.3% BSA (10 mL/L of 30% BSA). Plates were dried overnight at 37° C., or for 2 hrs at 56° C. The bottom of the plates were sealed and 0.025 mL of Microscint 0 was added to each well. The plates were top sealed and counted for 2 min/well in a Packard TopCount Scintillation counter. Test compounds were evaluated in a five point titration format using half-log steps from 0.3 μM to 30 μM. […] Less than 5% of the added radioactivity was retained on the filters. Assays were performed in triplicate.

[1] = molecular target: T2, human Nav channel isoform, Nav1.2 (Homo sapiens, UniProt Q99250); assay: Patch clamp electrophysiology of compound 1 on Nav1.2 in HEK 293; format: cell-based; details: HEK293, HEK 293 Nav1.2, holding −60 mV to +10 mV, read-out: inhibition of Nav channel current
T2 construct: expressed in transfected cells; host or cells: HEK 293
Protocol: The effects of the racemic mixture and enantiomers of compound 1 were also examined by patch clamp electrophysiology on the human Nav channel isoform, Nav1.2, stably expressed in human embryonic kidney cells (HEK 293). Nav currents were elicited by step depolarizations from a holding potential of −60 mV to +10 mV for 25 ms at 15 s intervals. Sodium currents were record during a control drug free condition, after 5 mins of drug perfusion and following washout. […] The racemic mixture inhibited the sodium channel current by 31.9±2.9% (n=3) at 1 μM and by 87.0±3.1% (n=3) at 10 μM (FIG. 14). All drug effects were fully reversible on washout.
Sodium currents were recorded using the whole-cell configuration of the patch clamp recording technique with an Axopatch 200 amplifier (Axon Instruments, Foster City, Calif.). All voltage protocols were applied using pCLAMP 9 software (Axon, USA) and a Digidata 1322A (Axon, USA). Currents were amplified and low pass filtered (2 kHz) and sampled at 33 kHz. Borosilicate glass pipettes were pulled using a Brown-Flaming puller (model P87, Sutter Instruments Co, Novato, Calif.) and heat polished to produce electrode resistances of 1.5-3.0 MΩ when filled with the following electrode solution (in mM); CsCl 130, MgCl2 1, MgATP 5, BAPTA 10, HEPES 5 (pH adjusted to 7.4 with CsOH). Cells were plated on glass coverslips and superfused with solution containing the following composition; (in mM) NaCl 130, KCl 4, CaCl2 1, MgCl2 5, HEPES 5, and glucose 5 (pH adjusted to 7.4 with NaOH). Compounds were prepared as 100 mM stock solutions in dimethyl sulfoxide (DMSO) and diluted to desired concentration (1 μM or 10 μM) in perfusion solution. All experiments were performed at room temperature (20-22° C.). After establishing whole-cell, a minimum series resistance compensation of 75% was applied and cells were held at −100 mV for 5 minutes to account for equilibrium gating shifts. Sodium currents were evoked by stepping to +10 mV from a holding potential of −60 mV for 25 ms at 15 s intervals. After control recordings, test compounds were applied for five minutes to allow for bath equilibration. Tonic block was assessed by comparing peak sodium current in drug free conditions to peak current when drug was present. Data analysis was performed using Clampfit software (v9, Axon Instruments, CA, USA) and Origin (v6, Microcal Software, MA, USA).

CWR22rv-1 cells = assay: CWR22rv-1 prostate cancer cell death (propidium iodide, FACS); format: cell-based, human
Protocol: CWR22Rv1 cells (ATCC, Manassas, Va.) were seeded in 6 well tissue culture plate at density of 300,000 cells/well and maintained in RPMI 1640 (Mediatech, Herndon, Va.) containing 10% fetal bovine serum, 2.5 mM L-glutamine, and penicillin-streptomycin (100 IU/ml and 100 μg/ml, respectively) at 37° C. with 5% CO2. Cells were then switched to serum free RPMI media overnight prior to drug treatment. Compounds were dissolved in 100% dimethylsulfoxide (DMSO) and diluted to the desired concentrations in serum free RPMI. Cells were treated with indicated drug concentrations (in triplicate per treatment point) for 24, 48, 72 hour. After treatment, cells were harvested by trypsinization and fixed in 70% ethanol. The fixed cells were then stained with propidium iodide (50 μg/ml) after treatment with RNase (5 μg/ml). The stained cells were analyzed for DNA content using FACSsort (Becton Dickinson). Cell cycle fractions were quantified with Cell Quest (Becton Dickinson) or ModFit LT (Verity Software House).

hNav1.7 = molecular target: T3, hNav1.7 (Homo sapiens, UniProt Q15858); assay: Fluorescent (FRET) based sodium channel assay, hNav1.7; format: cell-based; details: HEK293 stably transfected with hNav1.7, 20 μM veratridine, read-out: hNav 1.7 IC50
T3 construct: expressed in transfected cells; host or cells: HEK293
Protocol: Two isoforms of the channel were examined: hNav1.5, a cardiac sodium channel associated with arrhythmias, and hNav1.7, an isoform found in the peripheral nervous system.
HEK293 cells stably transfected with either hNav1.5 or hNav1.7 were plated at approximately 11,000-20,000 cells/well in flat bottom, poly-D-lysine coated black-wall, clear-bottom, 384-well plates (Becton Dickinson, Bedford, Mass.), and incubated overnight at 37° C. in a 10% CO2 atmosphere in growth medium. Cells were washed with 0.03 mL of Dulbecco's phosphate buffered saline (D-PBS) containing calcium and magnesium. Cells were then incubated with 0.025 mL of a solution containing 10 μM CC2-DMPE and 0.02% pluronic acid in D-PBS with calcium and magnesium; supplemented with 10 mM glucose, and 10 mM Hepes-NaOH, pH 7.4. […] Afterwards, cells were incubated in the dark at 25° C. for 45 min with 0.025 mL of a solution containing 5 μM DiSBAC2(3) in VIPR-S, in the absence or presence of test compound. At the end of the incubation period, the plate was placed in a FLIPR TETRA instrument (MDS Analytical Technologies, Sunnyvale Calif.), illuminated at 390-420 nm, and fluorescence emissions were recorded at approximately 1 Hz at 460 and 580 nm. Following a 7 second baseline reading, 0.025 mL of VIPR-S containing 10 μM veratridine for Nav1.5 or 20 μM veratridine for Nav1.7 was added to each well, and the emissions of both dyes were recorded for an additional 33 seconds. The change in fluorescence resonance energy transfer (FRET) ratio (F/F0) was calculated as: F/F0=((A460/A580/(I460/I580) where A and I represent the readings after or before addition of veratridine, respectively, at the indicated wavelengths. For I, the readings from 2-5 seconds were averaged, and for A, readings from 3 seconds after the signal had reached a plateau level (usually within 30-40 s) were also averaged. Triplicate measurements were performed for each experimental condition and the data were averaged.

human prostate tissue = assay: Staining of human prostate paraffin embedded tissue slices; details: 100 μM
Protocol: The binding and localization of compound 26 in prostate and prostate cancer tissue was studied. Human prostate paraffin embedded tissue slices were stained with 100 μM of compound 26 and dansyl amine.

T1 sequence (Q12809 whole entry): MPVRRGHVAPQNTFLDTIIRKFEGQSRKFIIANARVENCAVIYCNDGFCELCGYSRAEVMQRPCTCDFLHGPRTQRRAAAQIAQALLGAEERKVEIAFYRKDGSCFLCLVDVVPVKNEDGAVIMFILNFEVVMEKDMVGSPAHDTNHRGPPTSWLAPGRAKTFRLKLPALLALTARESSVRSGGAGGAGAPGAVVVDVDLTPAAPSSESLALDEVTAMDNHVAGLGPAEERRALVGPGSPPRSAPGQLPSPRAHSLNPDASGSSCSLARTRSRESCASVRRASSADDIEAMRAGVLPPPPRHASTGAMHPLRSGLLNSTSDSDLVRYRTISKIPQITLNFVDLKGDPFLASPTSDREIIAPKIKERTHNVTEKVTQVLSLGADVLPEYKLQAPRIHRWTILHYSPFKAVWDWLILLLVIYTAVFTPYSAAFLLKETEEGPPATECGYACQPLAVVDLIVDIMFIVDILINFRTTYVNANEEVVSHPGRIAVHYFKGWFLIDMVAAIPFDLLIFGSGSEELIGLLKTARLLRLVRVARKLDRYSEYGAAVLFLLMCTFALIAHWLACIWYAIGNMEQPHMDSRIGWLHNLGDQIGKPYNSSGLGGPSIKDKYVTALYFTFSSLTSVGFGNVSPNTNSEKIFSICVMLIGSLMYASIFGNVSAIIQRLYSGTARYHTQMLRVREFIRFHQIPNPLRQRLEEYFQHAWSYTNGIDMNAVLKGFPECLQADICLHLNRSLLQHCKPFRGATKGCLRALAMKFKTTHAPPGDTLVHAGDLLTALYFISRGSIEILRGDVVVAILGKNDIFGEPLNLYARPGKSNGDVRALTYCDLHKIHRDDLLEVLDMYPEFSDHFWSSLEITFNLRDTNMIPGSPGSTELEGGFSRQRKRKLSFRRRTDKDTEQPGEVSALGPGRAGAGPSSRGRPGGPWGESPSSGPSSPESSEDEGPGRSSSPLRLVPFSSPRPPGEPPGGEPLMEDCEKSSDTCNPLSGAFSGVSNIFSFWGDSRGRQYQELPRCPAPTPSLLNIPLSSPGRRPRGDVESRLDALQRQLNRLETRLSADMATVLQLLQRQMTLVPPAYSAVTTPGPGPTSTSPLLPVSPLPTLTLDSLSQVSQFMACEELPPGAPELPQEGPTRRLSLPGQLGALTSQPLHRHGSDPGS
T2 sequence (Q99250 whole entry, canonical isoform): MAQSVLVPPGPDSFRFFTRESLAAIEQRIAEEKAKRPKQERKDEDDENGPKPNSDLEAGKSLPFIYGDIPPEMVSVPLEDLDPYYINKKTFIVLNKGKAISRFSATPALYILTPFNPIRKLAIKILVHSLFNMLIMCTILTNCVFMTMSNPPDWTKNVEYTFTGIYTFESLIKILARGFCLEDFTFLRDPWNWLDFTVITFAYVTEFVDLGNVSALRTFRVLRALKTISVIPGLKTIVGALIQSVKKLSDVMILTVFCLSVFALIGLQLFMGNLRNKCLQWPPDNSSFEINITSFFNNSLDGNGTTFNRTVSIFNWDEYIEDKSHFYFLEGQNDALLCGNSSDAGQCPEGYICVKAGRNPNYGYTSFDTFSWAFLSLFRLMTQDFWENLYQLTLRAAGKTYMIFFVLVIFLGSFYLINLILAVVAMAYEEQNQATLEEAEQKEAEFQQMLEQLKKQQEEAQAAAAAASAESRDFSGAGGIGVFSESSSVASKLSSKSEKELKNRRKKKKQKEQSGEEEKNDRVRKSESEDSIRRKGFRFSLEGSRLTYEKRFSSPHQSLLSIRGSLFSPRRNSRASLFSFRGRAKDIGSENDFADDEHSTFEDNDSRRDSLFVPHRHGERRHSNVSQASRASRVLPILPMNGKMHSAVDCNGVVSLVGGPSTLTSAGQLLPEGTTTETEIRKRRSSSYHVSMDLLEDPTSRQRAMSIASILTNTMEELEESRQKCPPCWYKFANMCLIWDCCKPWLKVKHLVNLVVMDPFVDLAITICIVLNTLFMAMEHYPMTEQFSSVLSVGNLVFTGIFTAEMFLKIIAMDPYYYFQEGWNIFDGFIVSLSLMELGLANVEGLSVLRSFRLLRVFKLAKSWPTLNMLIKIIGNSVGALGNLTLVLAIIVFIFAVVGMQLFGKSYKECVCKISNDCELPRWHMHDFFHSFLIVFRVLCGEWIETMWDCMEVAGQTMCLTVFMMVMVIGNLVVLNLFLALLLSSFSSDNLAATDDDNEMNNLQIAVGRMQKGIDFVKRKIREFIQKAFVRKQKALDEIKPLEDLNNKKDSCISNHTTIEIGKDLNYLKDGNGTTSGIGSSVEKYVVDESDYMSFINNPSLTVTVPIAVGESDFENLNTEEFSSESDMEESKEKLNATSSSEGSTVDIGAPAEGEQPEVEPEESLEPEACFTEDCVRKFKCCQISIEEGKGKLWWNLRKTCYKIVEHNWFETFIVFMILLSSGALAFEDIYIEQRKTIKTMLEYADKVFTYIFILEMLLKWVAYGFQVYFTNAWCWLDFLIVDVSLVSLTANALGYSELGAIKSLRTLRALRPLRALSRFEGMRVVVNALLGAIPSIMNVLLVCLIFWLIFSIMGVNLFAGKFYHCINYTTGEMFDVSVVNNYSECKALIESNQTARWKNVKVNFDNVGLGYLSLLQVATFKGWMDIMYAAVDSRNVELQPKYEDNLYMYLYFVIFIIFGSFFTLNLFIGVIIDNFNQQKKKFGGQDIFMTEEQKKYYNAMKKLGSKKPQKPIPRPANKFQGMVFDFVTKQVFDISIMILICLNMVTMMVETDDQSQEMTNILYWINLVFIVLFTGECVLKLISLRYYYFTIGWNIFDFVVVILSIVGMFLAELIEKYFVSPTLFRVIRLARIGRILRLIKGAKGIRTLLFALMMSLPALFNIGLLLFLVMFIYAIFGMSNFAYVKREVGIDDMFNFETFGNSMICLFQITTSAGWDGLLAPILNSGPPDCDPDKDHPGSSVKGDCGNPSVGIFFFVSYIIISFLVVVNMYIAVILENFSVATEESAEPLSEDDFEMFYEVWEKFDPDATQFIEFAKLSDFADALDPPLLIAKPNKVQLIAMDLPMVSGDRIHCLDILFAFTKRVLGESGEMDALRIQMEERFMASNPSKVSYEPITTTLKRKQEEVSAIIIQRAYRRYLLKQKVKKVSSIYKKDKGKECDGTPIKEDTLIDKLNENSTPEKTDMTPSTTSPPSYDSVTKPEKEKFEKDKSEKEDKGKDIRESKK
T3 sequence (Q15858 whole entry): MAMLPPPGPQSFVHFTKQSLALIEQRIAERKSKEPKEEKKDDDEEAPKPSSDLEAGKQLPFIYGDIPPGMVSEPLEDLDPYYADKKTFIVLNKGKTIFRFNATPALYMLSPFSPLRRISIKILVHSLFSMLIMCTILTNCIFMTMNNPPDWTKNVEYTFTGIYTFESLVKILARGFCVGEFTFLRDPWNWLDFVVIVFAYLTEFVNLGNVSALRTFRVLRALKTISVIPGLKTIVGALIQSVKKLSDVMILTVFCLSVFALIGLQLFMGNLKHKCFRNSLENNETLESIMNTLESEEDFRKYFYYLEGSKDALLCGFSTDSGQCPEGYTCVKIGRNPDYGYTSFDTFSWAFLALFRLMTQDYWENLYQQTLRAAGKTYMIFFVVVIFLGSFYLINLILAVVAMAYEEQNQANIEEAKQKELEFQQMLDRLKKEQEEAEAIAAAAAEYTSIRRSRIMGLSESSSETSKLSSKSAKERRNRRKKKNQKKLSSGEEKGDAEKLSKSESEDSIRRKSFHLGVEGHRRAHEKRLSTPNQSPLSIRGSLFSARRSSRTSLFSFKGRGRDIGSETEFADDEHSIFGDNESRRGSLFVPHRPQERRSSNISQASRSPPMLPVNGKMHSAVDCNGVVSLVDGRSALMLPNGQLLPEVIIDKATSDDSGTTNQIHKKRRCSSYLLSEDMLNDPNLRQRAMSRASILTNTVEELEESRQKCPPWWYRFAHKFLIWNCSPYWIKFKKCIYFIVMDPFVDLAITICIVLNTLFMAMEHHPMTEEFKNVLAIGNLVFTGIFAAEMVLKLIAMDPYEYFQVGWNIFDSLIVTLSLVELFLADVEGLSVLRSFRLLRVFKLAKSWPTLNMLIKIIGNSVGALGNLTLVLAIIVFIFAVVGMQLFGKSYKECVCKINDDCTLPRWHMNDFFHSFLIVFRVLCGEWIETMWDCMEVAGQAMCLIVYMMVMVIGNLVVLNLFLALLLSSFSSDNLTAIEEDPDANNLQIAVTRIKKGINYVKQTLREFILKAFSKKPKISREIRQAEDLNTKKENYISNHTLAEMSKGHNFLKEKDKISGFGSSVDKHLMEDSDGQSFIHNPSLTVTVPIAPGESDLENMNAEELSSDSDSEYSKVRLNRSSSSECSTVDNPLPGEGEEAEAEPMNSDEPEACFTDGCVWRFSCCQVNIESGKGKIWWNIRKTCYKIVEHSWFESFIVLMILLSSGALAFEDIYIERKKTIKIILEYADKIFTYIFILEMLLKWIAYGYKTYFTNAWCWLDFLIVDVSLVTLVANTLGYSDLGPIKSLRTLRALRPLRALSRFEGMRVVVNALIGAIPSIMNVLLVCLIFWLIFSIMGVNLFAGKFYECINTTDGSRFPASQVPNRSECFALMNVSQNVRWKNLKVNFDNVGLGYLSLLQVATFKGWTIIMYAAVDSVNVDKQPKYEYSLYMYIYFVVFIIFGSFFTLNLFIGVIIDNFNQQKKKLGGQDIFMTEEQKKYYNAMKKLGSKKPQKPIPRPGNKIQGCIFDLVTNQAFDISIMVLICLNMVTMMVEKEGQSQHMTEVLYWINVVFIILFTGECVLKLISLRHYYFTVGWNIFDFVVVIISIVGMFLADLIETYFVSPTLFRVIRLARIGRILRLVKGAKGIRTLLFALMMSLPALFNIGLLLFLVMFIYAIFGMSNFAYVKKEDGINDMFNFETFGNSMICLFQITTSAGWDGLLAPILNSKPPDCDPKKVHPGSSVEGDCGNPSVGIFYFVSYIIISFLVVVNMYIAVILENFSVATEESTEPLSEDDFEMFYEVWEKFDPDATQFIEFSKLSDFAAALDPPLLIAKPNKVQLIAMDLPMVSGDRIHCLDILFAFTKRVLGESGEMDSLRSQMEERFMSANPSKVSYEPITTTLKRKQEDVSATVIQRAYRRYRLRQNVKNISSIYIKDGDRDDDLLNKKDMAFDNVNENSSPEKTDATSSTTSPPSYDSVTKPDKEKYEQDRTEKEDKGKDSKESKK

Structure (SMILES) | % inhibition for hERG assay, 0.3 μM (hERG potassium channels) [%] | % inhibition for hERG assay, 1 μM (hERG potassium channels) [%] | % inhibition for hERG assay, 3 μM (hERG potassium channels) [%] | % inhibition for hERG assay, 10 μM (hERG potassium channels) [%] | % inhibition for hERG assay, 30 μM (hERG potassium channels) [%] | inhibition at 1 µM [1] [%] | inhibition at 10 µM [1] [%] | cell death of CWR22rv-1 cells (CWR22rv-1 cells; 25 μM, after 24 h) | cell death of CWR22rv-1 cells (CWR22rv-1 cells; after 72 h) [%] | IC50 (hNav1.7) [nM] | binding to human prostate tissue (microscopy) (human prostate tissue)
CCCCCCC[C@](O)(C(N)=O)c1cccc(Cl)c1 [Compound (R)-(−)-1, (R)-(−)-2-(3-chloro-phenyl)-2-hydroxy-nonanoic acid amide] | 16 | 26 | 20 | 57 | 90 | 67.4 ± 5.3 | 94.3 ± 0.6 | approximately 25% | 60 | 1880 | –
CCCCCCC[C@@](O)(C(N)=O)c1cccc(Cl)c1 [Compound (S)-(+)-1, (S)-(+)-2-(3-chloro-phenyl)-2-hydroxy-nonanoic acid amide] | 10 | 25 | 33 | 65 | 90 | 34.9 ± 2.3 | 91.5 ± 0.5 | marginal effects | 40 | 2620 | –
CN(C)c1cccc2c(S(N)(=O)=O)cccc12 [dansyl amine, reference compound] | – | – | – | – | – | – | – | – | – | – | does not bind
